Assay results published in patent US10781224B2, “Bis(oxymethyl)phosphinic acid and biogenic metal salts thereof as regulators of plant growth and development” (priority 2016, dated 2020).

System: winter wheat (Vershin variety)
Assay: Winter wheat seed treatment with BHMPA salts: germinating power (length and mass of roots and sprouts)
Format: in vivo
Procedure, shortened: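 Seeds (50 per Petri dish on two layers of filter paper) soaked 1 h in BHMPA or its Ca, Mg, Na, Co, Mn, Cu or Zn salts at 1·10^−6-1·10^−12%, with water controls. Germination energy read on day 4, germination on day 8 (wheat) or day 7 (rice, corn), as % means of four replicates. Germinating power taken as root and sprout length plus wet and dry mass per 100 seedlings.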

[1] = comparative study, 1·10^−9% solution

In the case of `O=P([O-])(CO)CO.[Na+]` [Na-salt, Sodium BHMPA Salt], the “effectiveness on germinating power” value (1·10^−6% and 1·10^−12% solutions) is reported as “marginally effective”, the Length, root (1·10^−6% solution) is reported as 5.0 cm and the “Length, root, + % to control” value (1·10^−6% solution) is reported as −5.7%. The Length, sprout (1·10^−6% solution) was 6.0 cm, the “Length, sprout, + % to control” value (1·10^−6% solution) was −1.6% and the Mass, dry, root (1·10^−6% solution) was 0.37 g/100 plantlings. For the same molecule, the “Mass, dry, root, + % to control” value (1·10^−6% solution) was −10%, the Mass, dry, sprout (1·10^−6% solution) was 0.54 g/100 plantlings and the “Mass, dry, sprout, + % to control” value (1·10^−6% solution) was −3.6%. The Mass, wet, root (1·10^−6% solution) was 2.35 g/100 plantlings, the “Mass, wet, root, + % to control” value (1·10^−6% solution) was −3.7% and the Mass, wet, sprout (1·10^−6% solution) was 4.51 g/100 plantlings. The “Mass, wet, sprout, + % to control” value (1·10^−6% solution) was −3.6%, the Length, root (1·10^−7% solution) was 5.3 cm and the “Length, root, + % to control” value (1·10^−7% solution) was 0%. The Length, sprout (1·10^−7% solution) was 6.3 cm, the “Length, sprout, + % to control” value (1·10^−7% solution) was 3.3% and the Mass, dry, root (1·10^−7% solution) was 0.45 g/100 plantlings. For the same molecule, the “Mass, dry, root, + % to control” value (1·10^−7% solution) was 10%, the Mass, dry, sprout (1·10^−7% solution) was 0.56 g/100 plantlings and the “Mass, dry, sprout, + % to control” value (1·10^−7% solution) was 0%. The Mass, wet, root (1·10^−7% solution) was 2.58 g/100 plantlings, the “Mass, wet, root, + % to control” value (1·10^−7% solution) was 5.7% and the Mass, wet, sprout (1·10^−7% solution) was 5.03 g/100 plantlings. The “Mass, wet, sprout, + % to control” value (1·10^−7% solution) was 7.5%, the Length, root (1·10^−8% solution) was 5.6 cm and the “Length, root, + % to control” value (1·10^−8% solution) was 5.7%. The Length, sprout (1·10^−8% solution) was 6.7 cm, the “Length, sprout, + % to control” value (1·10^−8% solution) was 10% and the Mass, dry, root (1·10^−8% solution) was 0.47 g/100 plantlings. The “Mass, dry, root, + % to control” value (1·10^−8% solution) was 14.6%, the Mass, dry, sprout (1·10^−8% solution) was 0.63 g/100 plantlings and the “Mass, dry, sprout, + % to control” value (1·10^−8% solution) was 12.5%. The Mass, wet, root (1·10^−8% solution) was 2.73 g/100 plantlings, the “Mass, wet, root, + % to control” value (1·10^−8% solution) was 12% and the Mass, wet, sprout (1·10^−8% solution) was 5.37 g/100 plantlings. The “Mass, wet, sprout, + % to control” value (1·10^−8% solution) was 15%, the Length, root (1·10^−9% solution) was 5.7 cm and the “Length, root, + % to control” value (1·10^−9% solution) was 7.5%. The Length, sprout (1·10^−9% solution) was 6.9 cm, the “Length, sprout, + % to control” value (1·10^−9% solution) was 13% and the Mass, dry, root (1·10^−9% solution) was 0.56 g/100 plantlings. For the same molecule, the “Mass, dry, root, + % to control” value (1·10^−9% solution) was 36.5%, the Mass, dry, sprout (1·10^−9% solution) was 0.69 g/100 plantlings and the “Mass, dry, sprout, + % to control” value (1·10^−9% solution) was 23%. For the same molecule, the Mass, wet, root (1·10^−9% solution) was 3.21 g/100 plantlings, the “Mass, wet, root, + % to control” value (1·10^−9% solution) was 31.5% and the Mass, wet, sprout (1·10^−9% solution) was 5.41 g/100 plantlings. The “Mass, wet, sprout, + % to control” value (1·10^−9% solution) was 15.6%, the Length, root (1·10^−10% solution) was 5.6 cm and the “Length, root, + % to control” value (1·10^−10% solution) was 5.7%. For the same molecule, the Length, sprout (1·10^−10% solution) was 6.5 cm, the “Length, sprout, + % to control” value (1·10^−10% solution) was 6.5% and the Mass, dry, root (1·10^−10% solution) was 0.46 g/100 plantlings. The “Mass, dry, root, + % to control” value (1·10^−10% solution) was 12%, the Mass, dry, sprout (1·10^−10% solution) was 0.61 g/100 plantlings and the “Mass, dry, sprout, + % to control” value (1·10^−10% solution) was 9%. For the same molecule, the Mass, wet, root (1·10^−10% solution) was 2.66 g/100 plantlings, the “Mass, wet, root, + % to control” value (1·10^−10% solution) was 9% and the Mass, wet, sprout (1·10^−10% solution) was 5.33 g/100 plantlings. For the same molecule, the “Mass, wet, sprout, + % to control” value (1·10^−10% solution) was 14%, the Length, root (1·10^−11% solution) was 5.5 cm and the “Length, root, + % to control” value (1·10^−11% solution) was 3.8%. The Length, sprout (1·10^−11% solution) was 6.4 cm, the “Length, sprout, + % to control” value (1·10^−11% solution) was 5% and the Mass, dry, root (1·10^−11% solution) was 0.43 g/100 plantlings. The “Mass, dry, root, + % to control” value (1·10^−11% solution) was 5%, the Mass, dry, sprout (1·10^−11% solution) was 0.60 g/100 plantlings and the “Mass, dry, sprout, + % to control” value (1·10^−11% solution) was 7%. For the same molecule, the Mass, wet, root (1·10^−11% solution) was 2.57 g/100 plantlings, the “Mass, wet, root, + % to control” value (1·10^−11% solution) was 5.3% and the Mass, wet, sprout (1·10^−11% solution) was 5.11 g/100 plantlings. The “Mass, wet, sprout, + % to control” value (1·10^−11% solution) was 9%, the Length, root (1·10^−12% solution) was 5.4 cm and the “Length, root, + % to control” value (1·10^−12% solution) was 2%. The Length, sprout (1·10^−12% solution) was 6.3 cm, the “Length, sprout, + % to control” value (1·10^−12% solution) was 3.3% and the Mass, dry, root (1·10^−12% solution) was 0.42 g/100 plantlings. The “Mass, dry, root, + % to control” value (1·10^−12% solution) was 2%, the Mass, dry, sprout (1·10^−12% solution) was 0.58 g/100 plantlings and the “Mass, dry, sprout, + % to control” value (1·10^−12% solution) was 3.6%. The Mass, wet, root (1·10^−12% solution) was 2.41 g/100 plantlings, the “Mass, wet, root, + % to control” value (1·10^−12% solution) was −1.2% and the Mass, wet, sprout (1·10^−12% solution) was 5.03 g/100 plantlings. The “Mass, wet, sprout, + % to control” value (1·10^−12% solution) was 7.5%, the Length, root [1] was 8.7 cm and the “Length, root, + % to control” value [1] was 0%. For the same molecule, the Length, sprout [1] was 6.4 cm, the “Length, sprout, + % to control” value [1] was 3% and the Mass, dry, root [1] was 0.64 g/100 plantlings. The “Mass, dry, root, + % to control” value [1] was 3%, the Mass, dry, sprout [1] was 0.53 g/100 plantlings and the “Mass, dry, sprout, + % to control” value [1] was 4%. The Mass, wet, root [1] was 4.19 g/100 plantlings, the “Mass, wet, root, + % to control” value [1] was 16% and the Mass, wet, sprout [1] was 4.73 g/100 plantlings. The “Mass, wet, sprout, + % to control” value [1] was 19%.
